Assay results: patent KR20100022620A, “2-(2-옥소-2-페닐에틸설파닐)-벤즈이미다졸-4-카르복스아미드 유도체 또는 이의 약학적으로 허용가능한 염, 이의 제조방법 및 이를 유효성분으로 함유하는 폴리(adp-리보스)폴리머라제-1(parp-1)의 과활성에 의해 유발되는 질환의 예방 또는 치료용 약학적 조성물” (한국화학연구원, priority 2008, dated 2010)

Assays:
PARP-1 = target: T1, PARP-1 (Homo sapiens, UniProt P09874); assay: PARP-1 inhibition (Universal Colorimetric PARP Assay-Histones kit); assay type: biochemical; details: for IC50: IC50 determined only for drugs inhibiting 50% or more at 10 μM, 0.01 ~10 μM, 0.5U PARP, room temperature, 1 h; for PARP-1 inhibitory effect (in words): judged from Table 2
T1 construct: purchased TREVIGEN 4671-096-K
T1 sequence (P09874 whole entry): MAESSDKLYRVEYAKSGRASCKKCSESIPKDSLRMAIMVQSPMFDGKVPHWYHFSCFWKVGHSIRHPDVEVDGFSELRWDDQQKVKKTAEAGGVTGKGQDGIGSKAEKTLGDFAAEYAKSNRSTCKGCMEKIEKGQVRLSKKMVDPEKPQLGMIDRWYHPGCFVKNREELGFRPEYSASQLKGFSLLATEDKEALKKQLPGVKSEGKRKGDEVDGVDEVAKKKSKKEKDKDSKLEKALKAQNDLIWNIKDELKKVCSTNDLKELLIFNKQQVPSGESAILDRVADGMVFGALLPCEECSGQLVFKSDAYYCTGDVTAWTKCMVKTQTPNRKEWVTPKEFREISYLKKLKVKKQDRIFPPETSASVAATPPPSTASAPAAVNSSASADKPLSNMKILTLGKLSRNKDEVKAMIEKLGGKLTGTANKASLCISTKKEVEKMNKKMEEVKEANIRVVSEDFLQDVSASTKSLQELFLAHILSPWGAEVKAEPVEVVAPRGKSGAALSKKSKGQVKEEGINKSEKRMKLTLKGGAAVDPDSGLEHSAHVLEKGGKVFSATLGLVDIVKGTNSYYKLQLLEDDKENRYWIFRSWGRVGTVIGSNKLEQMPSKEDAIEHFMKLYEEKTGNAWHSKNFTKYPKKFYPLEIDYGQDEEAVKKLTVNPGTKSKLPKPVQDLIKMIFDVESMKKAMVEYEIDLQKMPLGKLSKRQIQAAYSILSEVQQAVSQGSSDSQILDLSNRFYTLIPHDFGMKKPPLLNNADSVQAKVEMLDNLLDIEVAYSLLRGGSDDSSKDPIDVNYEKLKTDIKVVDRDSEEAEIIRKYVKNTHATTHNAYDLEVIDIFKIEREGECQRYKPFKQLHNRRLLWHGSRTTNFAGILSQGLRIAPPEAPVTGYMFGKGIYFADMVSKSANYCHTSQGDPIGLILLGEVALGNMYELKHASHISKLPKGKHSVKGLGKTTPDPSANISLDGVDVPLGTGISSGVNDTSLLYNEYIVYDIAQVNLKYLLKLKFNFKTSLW

ischemic heart (허혈심장) = assay: Antiischemic (cardioprotective) effect in in vivo ischemic heart model of the rat; details: 1 mg/kg; for reduction of myocardial infarction rate / cardioprotective effect (in words): rat, versus negative control 58.6%; for myocardial infarction rate (IS/AAR, infarct size/area at risk): via femoral vein, male rat, 45 min occlusion, 90 min reperfusion, negative control 58.6%

| IC50 (PARP-1) [nM] | PARP-1 inhibitory effect (in words) (PARP-1) | Compound | reduction of myocardial infarction rate / cardioprotective effect (in words) (ischemic heart (허혈심장)) | myocardial infarction rate (IS/AAR, infarct size/area at risk) (ischemic heart (허혈심장)) [%] |
| --- | --- | --- | --- | --- |
| 1050 |  | NC(=O)c1cccc2[nH]c(SCC(=O)c3cc(Cl)ccc3Cl)nc12 [실시예 1, 2-[2-(2,5-디클로로페닐)-2-옥소-에틸설파닐]-1H-벤즈이미다졸-4-카르복스아미드] |  |  |
| 710 | 매우 뛰어난 PARP-1 억제효과 | NC(=O)c1cccc2[nH]c(SCC(=O)c3ccc(Br)cc3)nc12 [실시예 2, 2-[2-(4-브로모페닐)-2-옥소-에틸설파닐]-1H-벤즈이미다졸-4-카르복스아미드] | 음성대조군보다 유의성 있는 감소 | 44.1 |
| 1330 |  | Cc1ccc(C)c(C(=O)CSc2nc3c(C(N)=O)cccc3[nH]2)c1 [실시예 3, 2-[2-(2,5-디메틸페닐)-2-옥소-에틸설파닐]-1H-벤즈이미다졸-4-카르복스아미드] |  |  |
| 940 | 매우 뛰어난 PARP-1 억제효과 | NC(=O)c1cccc2[nH]c(SCC(=O)c3ccc(F)cc3)nc12 [실시예 4, 2-[2-(4-플루오로페닐)-2-옥소-에틸설파닐]-1H-벤즈이미다졸-4-카르복스아미드] |  |  |
| > 10000 |  | CN(C)c1ccc(C(=O)CSc2nc3c(C(N)=O)cccc3[nH]2)cc1 [실시예 5, 2-[2-(4-디메틸아미노페닐)-2-옥소-에틸설파닐]-1H-벤즈이미다졸-4-카르복스아미드] |  |  |
| > 10000 |  | NC(=O)c1cccc2[nH]c(SCC(=O)c3ccc(N4CCCC4)cc3)nc12 [실시예 6, 2-[2-(4-피롤리딘-1-일페닐)-2-옥소-에틸설파닐]-1H-벤즈이미다졸-4-카르복스아미드] |  |  |
| 2260 |  | COc1cccc(C(=O)CSc2nc3c(C(N)=O)cccc3[nH]2)c1 [실시예 7, 2-[2-(3-메톡시페닐)-2-옥소-에틸설파닐]-1H-벤즈이미다졸-4-카르복스아미드] |  |  |
| 960 | 매우 뛰어난 PARP-1 억제효과 | NC(=O)c1cccc2[nH]c(SCC(=O)c3cccc(F)c3)nc12 [실시예 8, 2-[2-(3-플루오로페닐)-2-옥소-에틸설파닐]-1H-벤즈이미다졸-4-카르복스아미드] |  |  |
| 4750 |  | NC(=O)c1cccc2[nH]c(SCC(=O)c3ccc(Cl)cc3Cl)nc12 [실시예 9, 2-[2-(2,4-디클로로페닐)-2-옥소-에틸설파닐]-1H-벤즈이미다졸-4-카르복스아미드] |  |  |
| 1220 |  | NC(=O)c1cccc2[nH]c(SCC(=O)c3ccccc3F)nc12 [실시예 10, 2-[2-(2-플루오로페닐)-2-옥소-에틸설파닐]-1H-벤즈이미다졸-4-카르복스아미드] |  |  |
| 2230 |  | NC(=O)c1cccc2[nH]c(SCC(=O)c3cccc(Br)c3)nc12 [실시예 11, 2-[2-(3-브로모페닐)-2-옥소-에틸설파닐]-1H-벤즈이미다졸-4-카르복스아미드] |  |  |
| 960 | 매우 뛰어난 PARP-1 억제효과 | Cc1ccccc1C(=O)CSc1nc2c(C(N)=O)cccc2[nH]1 [실시예 12, 2-[2-(2-메틸페닐)-2-옥소-에틸설파닐]-1H-벤즈이미다졸-4-카르복스아미드] |  |  |
| 1120 |  | COc1ccccc1C(=O)CSc1nc2c(C(N)=O)cccc2[nH]1 [실시예 13, 2-[2-(2-메톡시페닐)-2-옥소-에틸설파닐]-1H-벤즈이미다졸-4-카르복스아미드] |  |  |
| 1940 |  | COc1ccc(C(=O)CSc2nc3c(C(N)=O)cccc3[nH]2)cc1 [실시예 14, 2-[2-(4-메톡시페닐)-2-옥소-에틸설파닐]-1H-벤즈이미다졸-4-카르복스아미드] |  |  |
| 1920 |  | Cc1cccc(C(=O)CSc2nc3c(C(N)=O)cccc3[nH]2)c1 [실시예 15, 2-[2-(3-메틸페닐)-2-옥소-에틸설파닐]-1H-벤즈이미다졸-4-카르복스아미드] |  |  |
| 1200 |  | NC(=O)c1cccc2[nH]c(SCC(=O)c3cccc(N4CCCC4)c3)nc12 [실시예 16, 2-[2-(3-피롤리딘-1-일페닐)-2-옥소-에틸설파닐]-1H-벤즈이미다졸-4-카르복스아미드] |  |  |
| 1400 |  | NC(=O)c1cccc2[nH]c(SCC(=O)c3ccc(N4CCCCC4)cc3)nc12 [실시예 17, 2-[2-(3-피페리딘-1-일페닐)-2-옥소-에틸설파닐]-1H-벤즈이미다졸-4-카르복스아미드] |  |  |
| 430 | 매우 뛰어난 PARP-1 억제효과 | NC(=O)c1cccc(C(=O)CSc2nc3c(C(N)=O)cccc3[nH]2)c1 [실시예 18, 2-[2-(3-카르바모일페닐)-2-옥소-에틸설파닐]-1H-벤즈이미다졸-4-카르복스아미드] | 우수한 심장보호효과 | 37.5 |
| 380 | 매우 뛰어난 PARP-1 억제효과 | NC(=O)c1ccc(C(=O)CSc2nc3c(C(N)=O)cccc3[nH]2)cc1 [실시예 19, 2-[2-(4-카르바모일페닐)-2-옥소-에틸설파닐]-1H-벤즈이미다졸-4-카르복스아미드] | 우수한 심장보호효과 | 36.3 |
| > 10000 |  | NC(=O)c1cccc2[nH]c(SCC(=O)c3ccccc3)nc12 [실시예 20, 2-[2-페닐-2-옥소-에틸설파닐]-1H-벤즈이미다졸-4-카르복스아미드] |  |  |
| 750 | 매우 뛰어난 PARP-1 억제효과 | NC(=O)c1cccc2[nH]c(SCC(=O)c3ccc(C=O)cc3)nc12 [실시예 21, 2-[2-(4-포르밀페닐)-2-옥소-에틸설파닐]-1H-벤즈이미다졸-4-카르복스아미드] |  |  |
